Where two headings read alike, the source gives them in different places.

Assay [1] deals with T1, TTR (Homo sapiens, UniProt P02766).
T1 construct: made in house
The assay is described as follows: Time course (kinetics) of fibril formation, turbidity at 340 nm for 3 h. In kind it is biochemical. The conditions noted are these: TTR 7.2 μM, inhibitor 21.6 μM, 37° C., pH 4.4, 3 h. How it is done:
Time Course of Fibril Formation. The kinetics of inhibition was studied by incubating […] TTR with […] of different inhibitors in 100 µl of 5 mM phosphate buffer pH 7.2 for 30 min in a 96 microwell plate. […] of 0.2 M sodium acetate buffer pH 4.4 containing 1 mM EDTA and 100 mM KCl was added. The difference in turbidity was assessed by measuring the change in absorbance at 340 nm on Tecan GEnios microplate reader using Magellan software. For kinetics, parameters were set for 30 cycles at 37° C. at the interval of 5 min each and 2 min orbital shaking (low speed) between cycles and 10 sec shaking (normal speed) before measurement. All experiments were performed in triplicates. Change in absorbance at 340 nm was plotted against time in the presence and absence of inhibitors initial rate of fibril formation was calculated from the slope by linear fitting of the data.
All experiments were performed three times in triplicates. Change in absorbance (mean of three different experiments) at 340 nm was plotted against time in the presence and absence of inhibitors. Initial rate of fibril form action was calculated from the value of the slope by linear fitting of the change in absorbance at 340 nm as a function of time.

In assay [2] the target is T1, TTR. The assay is described as follows: Dissociation constant by fluorescence titration (Adair equation, two sites). The conditions noted are these: pH 4.4. It is filed as binding. On the procedure: The experiments were conducted at 25° C. After 1 h, the samples were diluted with 0.5 mL of 200 mM sodium acetate buffer pH 4.4 containing 100 mM KCl and 1 mM EDTA, vortexed, and incubated at 37° C. for 72 h. […] The stoichiometry of the binding of the inhibitors was determined by HPLC as described by Green et al., N. S. Palaninathan, S, L, Sacchettini, J. e. […] Dissociation constant of binding of these compounds to TTR was determined by fluorescence titration, and data were fitted into the Adair equation for two bind mg.
Small aliquots of 1 mM ligands solutions were successively added to the […] in 100 mM sodium acetate buffer pH 4.4 at […] under constant stirring. After each addition sample was left for 2 min. […] Readings were corrected for buffer blank, dilution and inner filter effect. The inner filter effect was corrected by using the following equation,
From the titration data the dissociation constant was determined by fitting data in following Adair equation for two binding sites-

Another assay addresses T2, WT-TTR (Homo sapiens, UniProt P02766).
T2 construct: made in house
The experiment in a line: Stagnant acid-mediated TTR aggregation (fibril formation) assay, turbidity at 340 nm. It is filed as biochemical. In short, it runs like this:
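Inhibitor and WT TTR preincubated 1 h at 25° C, then diluted into 200 mM sodium acetate pH 4.4, 100 mM KCl, 1 mM EDTA and held 72 h at 37° C without stirring.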

In a further assay the target is T3, TTR tetramer (Homo sapiens, UniProt P02766).
T3 construct: made in house
The experiment in a line: Urea denaturation (tetramer dissociation, tryptophan fluorescence). The conditions noted are these: TTR 1.8 μM, inhibitor 5.4 μM (1:3), 6 M urea, 25° C., up to […]. It is filed as biochemical.

`O=C(O)c1ccc(Oc2ccc(Cl)cc2Cl)c(O)c1` [Compound 7] returned an inhibition at 21.6 µM against TTR [1] above 80%. In addition, the results for the Kd at TTR [2] (read-out: Dissociation Constant Kd1) and at TTR [2] (read-out: Dissociation Constant Kd2) were 0.027 ± 0.00803 µM and 0.003 ± 0.00078 µM, respectively. Besides, the IC50 on WT-TTR (50% reduction in fibril formation, TTR 7.2 μM, pH 4.4, read-out: IC50 ± SE) is 2.59 ± 0.14 µM; on WT-TTR (TTR amyloid formation, 37° C., read-out: IC50), 0.47 to 3.5 µM; on WT-TTR (Table 3, WT-TTR 7.2 μM, read-out: IC50), 2.59 µM. In addition, the remaining activity at 50 µM on WT-TTR (72 h, biphenyl ether 50 μM, WT-TTR 7.2 μM, read-out: % FF at 50 μM) was 0%. The remaining activity at 7.2 µM on WT-TTR (72 h, pH 4.4, TTR 7.2 μM, inhibitor 7.2 μM (1:1), pH 4.4, 37° C., no inhibitor = 100%, read-out: % FF 1:1) amounted to 29%. Also, the remaining activity at 21.6 µM at WT-TTR (72 h, pH 4.4, TTR 7.2 μM, inhibitor 21.6 μM (1:3), pH 4.4, 37° C., no inhibitor = 100%, read-out: % FF 1:3) was 13.3%. The “protein dissociates (tetramer dissociation)” value at TTR tetramer was 21%.

One may read the inhibition as the share of the control response that was lost under treatment. Read a low inhibition as a response near the control. The term IC50 denotes the concentration that gives 50% inhibition.

The values above are taken from patent publication US20100190832A1, “Mechanism-based inhibitors of transthyretin amyloidosis: studies with biphenyl ethers and structural templates” (NATIONAL INSTITUTE OF IMMUNOLOGY., priority 2008, published 2010).
